The source of these data is PubChem BioAssay (NCI).

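Tested at 5 concentrations; 48 h exposure; 96-well plates; endpoints linearly interpolated, else capped at highest concentration. Abbreviation: GI50, concentration required for 50% inhibition of growth. TGI denotes the concentration required for complete inhibition of growth.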

As a reminder, the TGI is the concentration giving total growth inhibition. The low end stands for more potent growth arrest, the high end for less potent growth arrest. By GI50 is commonly meant the concentration that inhibits growth by half.

In the first assay the test system is HOP-62 NSCLC. Kind of assay: DTP human tumour cell line panel, 48 h.
`Cc1cc2c(C(C)C)c(O)c(O)c(C=Nc3cc(C(F)(F)F)ccc3Cl)c2c(O)c1-c1c(C)cc2c(C(C)C)c(O)c(O)c(C=Nc3cc(C(F)(F)F)ccc3Cl)c2c1O` registered a concentration for total growth inhibition (TGI) of over 100 µM.

On to `CC(CO)[C@H]1OC(=O)C=C2[C@@]13O[C@@H]3[C@H]1OC(=O)[C@@]3(C)[C@H]4O[C@H]4C[C@@]2(C)[C@@H]13` (stereo partly specified), for which the TGI is over 100 µM.

For the compound `COc1cc2cc(Oc3ccc(NC(=O)c4cccc(C(F)(F)F)c4)cc3)c(C)nc2cc1OC`, the GI50 was 21.6 µM and the TGI was over 100 µM.

`COc1cc(/C=C2\CN(C)CC3=C2Nc2nc(SC)[nH]c(=O)c2C3c2cc(OC)c(OC)c(OC)c2)cc(OC)c1OC` (stereo unspecified): the GI50 was 2.46 µM and the concentration for total growth inhibition (TGI) was determined as 7.09 µM.

As for `COc1cc(Nc2ccnc(N3CCN(c4ccnc5cc(Cl)ccc45)CC3)n2)cc(OC)c1`, the GI50 is 1.98 µM and the concentration for total growth inhibition (TGI) amounted to 14.2 µM.

As for `COC(=O)C1=C(OC(=O)c2ccc(Cl)cc2)C(C(=O)OC)[C@@]2(O)[C@@H](C(=O)OC)C(c3ccccc3C(F)(F)F)C[C@@H]1[C@@H]2C(=O)OC` (stereo partly specified), the GI50 was 9.24 µM and the concentration for total growth inhibition (TGI) was over 100 µM.

Take `N#Cc1ccc(-c2nc(C#N)c(N)o2)cc1`: the TGI is over 10 µM.

The subject of a further assay is SF-539 CNS. Kind of assay: DTP human tumour cell line panel, 48 h.
Consider `COc1cc(-c2csc(NC(=O)c3cc(C(F)(F)F)cc(C(F)(F)F)c3)n2)cc(OC)c1OC`, for which the GI50 is 3.35 µM and the total growth inhibition concentration (TGI) is over 100 µM.

Compound `CC(C)=CCC12Cc3ccc(O)cc3C(C(C)CN1)C2C` (stereo unspecified) displayed a TGI of over 100 µM.

In the case of `CC[N+]1(C)CCC(O)(c2ccc(C)cc2)C(C(=O)c2ccc(C)cc2)C1` (stereo unspecified), the TGI is over 100 µM.

For the compound `CC(=O)c1cccc(N(/C=C/C(=O)C(F)(F)F)CC(=O)c2ccc(Cl)cc2)c1`, the GI50 is over 100 µM and the total growth inhibition concentration (TGI) is over 100 µM.

As for `COc1ccc(Cl)cc1Nc1nc(C(F)(F)F)ccc1C(=O)NN`, the GI50 was 6.52 µM and the concentration for total growth inhibition (TGI) was over 30.7 µM.

`CC(C)c1ccc2nc3ccc(C(=O)NCCN(C)C)cn3c(=O)c2c1` registered a TGI of 29.2 µM.

In the case of `C#C[C@]1(O)CC[C@H]2[C@@H]3CC=C4c5nc(Nc6ccccn6)sc5CC[C@]4(C)[C@H]3CC[C@@]21C`, the GI50 was 0.185 µM and the TGI turned out to be 0.744 µM.

In the case of `CSc1ccc(C2=Nn3c(nnc3-c3ccc(F)c(Cl)c3)SC2)cc1`, the GI50 is 10.1 µM and the TGI is 26.7 µM.

`NCCCCNCCCNC(=O)CNC(=O)CC(O)C(N)CCCC(NC(=O)C(CN)NC(=O)C(O)CNC(=O)CC(N)c1ccc(O)cc1)C(=O)O` (stereo unspecified) came in with a TGI of over 10 µM.

Turning to `Nc1cc(N)c2nc(-c3ccccc3)c(Oc3ccc(F)cc3)nc2c1`, the GI50 was 18.1 µM and the TGI is 35.7 µM.

The compound `Clc1ccccc1NN(Cc1ccccn1)c1ccccc1Cl` showed a total growth inhibition concentration (TGI) of 36.6 µM.

Regarding `Cc1cc2c(C(C)C)c(O)c(O)c(C=Nc3cc(C(F)(F)F)ccc3Cl)c2c(O)c1-c1c(C)cc2c(C(C)C)c(O)c(O)c(C=Nc3cc(C(F)(F)F)ccc3Cl)c2c1O`, the concentration for total growth inhibition (TGI) was over 100 µM.

In the case of `COc1cc2cc(Oc3ccc(NC(=O)c4cccc(C(F)(F)F)c4)cc3)c(C)nc2cc1OC`, the GI50 was 8.35 µM and the concentration for total growth inhibition (TGI) was over 100 µM.

Consider `COc1cc(/C=C2\CN(C)CC3=C2Nc2nc(SC)[nH]c(=O)c2C3c2cc(OC)c(OC)c(OC)c2)cc(OC)c1OC` (stereo unspecified), for which the GI50 is 3.64 µM and the total growth inhibition concentration (TGI) was 15.6 µM.

As for `COc1cc(Nc2ccnc(N3CCN(c4ccnc5cc(Cl)ccc45)CC3)n2)cc(OC)c1`, the GI50 was 1.25 µM and the TGI amounted to 3.17 µM.

`COC(=O)C1=C(OC(=O)c2ccc(Cl)cc2)C(C(=O)OC)[C@@]2(O)[C@@H](C(=O)OC)C(c3ccccc3C(F)(F)F)C[C@@H]1[C@@H]2C(=O)OC` (stereo partly specified): the GI50 was 5.13 µM and the total growth inhibition concentration (TGI) was over 100 µM.

`N#Cc1ccc(-c2nc(C#N)c(N)o2)cc1` showed a TGI of over 10 µM.

A further assay has as its system DU-145 prostate. Kind of assay: DTP human tumour cell line panel, 48 h.
With `COc1cc(-c2csc(NC(=O)c3cc(C(F)(F)F)cc(C(F)(F)F)c3)n2)cc(OC)c1OC`, the GI50 is 3.62 µM and the total growth inhibition concentration (TGI) is over 100 µM.

`CC(C)=CCC12Cc3ccc(O)cc3C(C(C)CN1)C2C` (stereo unspecified) had a total growth inhibition concentration (TGI) of over 100 µM.

`CC[N+]1(C)CCC(O)(c2ccc(C)cc2)C(C(=O)c2ccc(C)cc2)C1` (stereo unspecified): the TGI was over 100 µM.

As to `CC(=O)c1cccc(N(/C=C/C(=O)C(F)(F)F)CC(=O)c2ccc(Cl)cc2)c1`, the GI50 was over 100 µM and the total growth inhibition concentration (TGI) was over 100 µM.

In the case of `COc1ccc(Cl)cc1Nc1nc(C(F)(F)F)ccc1C(=O)NN`, the GI50 was 2.42 µM and the TGI was over 20.2 µM.

Compound `CC(C)c1ccc2nc3ccc(C(=O)NCCN(C)C)cn3c(=O)c2c1` came in with a total growth inhibition concentration (TGI) of over 100 µM.

With `C#C[C@]1(O)CC[C@H]2[C@@H]3CC=C4c5nc(Nc6ccccn6)sc5CC[C@]4(C)[C@H]3CC[C@@]21C`, the GI50 is 2.16 µM and the TGI stood at 9.16 µM.

On to `CSc1ccc(C2=Nn3c(nnc3-c3ccc(F)c(Cl)c3)SC2)cc1`, for which the GI50 is 34.2 µM and the TGI is over 100 µM.

In the case of `NCCCCNCCCNC(=O)CNC(=O)CC(O)C(N)CCCC(NC(=O)C(CN)NC(=O)C(O)CNC(=O)CC(N)c1ccc(O)cc1)C(=O)O` (stereo unspecified), the total growth inhibition concentration (TGI) is over 10 µM.

As for `Nc1cc(N)c2nc(-c3ccccc3)c(Oc3ccc(F)cc3)nc2c1`, the GI50 is 17.2 µM and the total growth inhibition concentration (TGI) was found to be 36.8 µM.

Compound `Clc1ccccc1NN(Cc1ccccn1)c1ccccc1Cl` registered a TGI of over 100 µM.

Regarding `Cc1cc2c(C(C)C)c(O)c(O)c(C=Nc3cc(C(F)(F)F)ccc3Cl)c2c(O)c1-c1c(C)cc2c(C(C)C)c(O)c(O)c(C=Nc3cc(C(F)(F)F)ccc3Cl)c2c1O`, the TGI is over 100 µM.

For the compound `CC(CO)[C@H]1OC(=O)C=C2[C@@]13O[C@@H]3[C@H]1OC(=O)[C@@]3(C)[C@H]4O[C@H]4C[C@@]2(C)[C@@H]13` (stereo partly specified), the concentration for total growth inhibition (TGI) was over 27.1 µM.

For `COc1cc2cc(Oc3ccc(NC(=O)c4cccc(C(F)(F)F)c4)cc3)c(C)nc2cc1OC`, the GI50 was 8.48 µM and the TGI is over 100 µM.

Turning to `COc1cc(/C=C2\CN(C)CC3=C2Nc2nc(SC)[nH]c(=O)c2C3c2cc(OC)c(OC)c(OC)c2)cc(OC)c1OC` (stereo unspecified), the GI50 is 3.6 µM and the TGI is 12.1 µM.

Regarding `COc1cc(Nc2ccnc(N3CCN(c4ccnc5cc(Cl)ccc45)CC3)n2)cc(OC)c1`, the GI50 was 3.25 µM and the total growth inhibition concentration (TGI) is over 100 µM.

As for `COC(=O)C1=C(OC(=O)c2ccc(Cl)cc2)C(C(=O)OC)[C@@]2(O)[C@@H](C(=O)OC)C(c3ccccc3C(F)(F)F)C[C@@H]1[C@@H]2C(=O)OC` (stereo partly specified), the GI50 is 6.1 µM and the TGI is over 100 µM.

Compound `N#Cc1ccc(-c2nc(C#N)c(N)o2)cc1` returned a TGI of over 10 µM.
